Each structure is given as a SMILES string.

The subject of one assay is B. breve ATCC 15700. The experiment in a line: FTICR-MS HMO consumption glycoprofiling of bacterial fermentation. Type of assay: cell-based, Bifidobacterium breve. To be noted: 45 hrs. An excerpt:
(§1) Bifidobacterium longum bv. infantis ATCC 15697 and B. breve ATCC 15700 were obtained from the American Type Culture Collection (Manassas, Va.), B. longum bv. longum DJO10A was from D. O'Sullivan, University of Minnesota. Cultures were initially propagated in deMan, Rogosa, Sharpe broth (Becton Dickinson, Sparks, Md.) then grown twice on a semi-synthetic MRS medium, devoid of a carbohydrate source (Barrangou et al., Proceedings of the National Academy of Sciences of the United States of America (2003) 100, (15), 8957-8962). This medium was supplemented with 2.0% (w/v) sterile filtered (Millex-GV, 0.22 μm, Millipore, Billerica, Mass.) HMO as the only carbohydrate source. […] Cell growth was measured by assessing optical density at 600 nm with a ND-1000 Spectrophotometer (NanoDrop Technologies, Wilmington, Del.). […]
(§2) All mass spectra were acquired on a HiResESI QFT-hybrid Fourier transform ion cyclotron resonance mass spectrometer with a 9.4 Tesla shielded superconducting magnet (IonSpec Corp., Irvine, Calif.). […] Ion excitation was performed by arbitrary waveform with amplitude of 125.0 V (base-to-peak) and detected by direct broadband mode at a rate of 1 MHz and 512K data points. Each spectrum was recorded with one acquisition scan in the positive ion mode.
(§3) The D/H ratios were calculated using Formula 1 adapted from Xie et al. (Xie et al., Analytical Chemistry (2004) 76, (17), 5186-5197). […]

The subject of assay [1] is B. longum bv. longum DJO10A. Described as above. To be noted: 45 hrs. The assay is classed as cell-based, Bifidobacterium longum bv. longum.
Excerpt: as §1, §2, §3

The test system of assay [2] is sialidase (EC 3.2.1.18) of B. infantis ATCC 15697. The experiment in a line: Glycosyl hydrolase assay, sialidase in cell-free extract. Type of assay: cell-based. As to the method: (§4) Assayed cells were incubated anaerobically at 37° C. on semi-synthetic MRS medium (Barrangou et al., Proceedings of the National Academy of Sciences of the United States of America (2003) 100: 8957-8962), with 1% (w/v) sterile filtered lactose or HMO as the sole carbon source. Early stationary phase cells were harvested and 200 mg of 0.1 mm diameter glass beads (BioSpec Products, Bartlesville, Okla.) were added to the suspensions which were subjected to two cycles of 45 s at power 6.0 m s^−1 on a FastPrep FP120 cell disruptor (Qbiogene, Morgan Irvine, Calif.). The beads and cell debris were removed by centrifugation. Cell-free extracts were collected and kept temporarily on ice until the start of the enzyme assays. Protein concentrations were determined according to the Bradford method using bovine serum albumin as the standard (Bradford, M. M., Analytical Biochemistry (1976) 72, (1-2), 248-254). Activity of α-L-fucosidase (EC 3.2.1.51) and sialidase (EC 3.2.1.18) were assayed with the fluorogenic substrates, 4-methylumbelliferyl α-L-fucopyranoside and 2′-(4-methylumbelliferyl) α-D-N-acetylneuraminic acid respectively. Fucosidase activity was assayed with a fluorogenic substrate concentration of 1 mM in 0.2 M phosphate-citrate buffer (pH 5.2), while the sialidase assay employed 0.5 mM of substrate mixed in equal volume with 50 μl 0.25 M sodium acetate-acetic acid buffer (pH 4.3). The reaction mixture containing 100 μl of cell-free extract and 100 μL substrate solution were incubated for 1 hr at 37° C. with the reaction stopped with 1.3 mL of 0.17 M glycine-carbonate buffer, pH 9.8. The fluorescence of enzymatically liberated 4-methylumbelliferone was determined in a Bio-Rad VersaFluor fluorometer (Eureka, Calif.) by excitation at 360 nm and emission measured at 460 nm. Serially diluted 4-methylumbelliferone was used to calibrate relative fluorescence units with substrate concentration. The specific activity of the glycosyl hydrolase was expressed as nanomoles of hydrolyzed substrate per milligram of protein per hour. Assays were performed in duplicates and the standard error was reported.

Assay [3] has as its system sialidase (EC 3.2.1.18) of B. breve ATCC 15700. The assay is described as above. Type of assay: cell-based. To be noted: cells grown with 1% (w/v) of the substance as sole carbon source. The protocol:
as §4

Assay [4] has as its system sialidase (EC 3.2.1.18) of B. longum DJO10A. The assay is described as above. To be noted: cells grown with 1% (w/v) of the substance as sole carbon source. Type of assay: cell-based. As to the method: as §4
[5] abbreviates: media supplemented with 2.0% (w/v) HMO.

For the compound `CC(=O)N[C@H]1[C@H](O[C@H]2[C@@H](O)[C@@H](CO)O[C@@H](O[C@H]3[C@H](O)[C@@H](O)C(O)O[C@@H]3CO)[C@@H]2O)O[C@H](CO)[C@@H](O)[C@@H]1O[C@@H]1O[C@H](CO)[C@H](O)[C@H](O)[C@H]1O` (stereo partly drawn) [lacto-N-tetraose], the “consumption of the overall detectable HMO pool represented by LNT metabolism” value with B. breve ATCC 15700 (2.0% (w/v) HMO) is 5.1%; in assay [1] (2.0% (w/v) HMO), 7.3%. In addition, the “consumption of the HMO species” value with B. breve ATCC 15700 (setting [5]) is on record as 24.4%; in assay [1] (setting [5]) it was 35.2%.

For `OC[C@H]1O[C@@H](O[C@H]2[C@H](O)[C@@H](O)C(O)O[C@@H]2CO)[C@H](O)[C@@H](O)[C@H]1O` (stereo partly drawn) [lactose], the Sialidase is reported as 10.8 ± 1.0 nmol/min/mg protein in assay [2] (cells grown with 1% (w/v) of the substance as sole carbon source), 0.32 ± 0.03 nmol/min/mg protein in assay [3] and 0.65 ± 0.03 nmol/min/mg protein in assay [4]. In addition, the “higher sialidase activity of B. longum bv. infantis compared to B. breve” value in assay [2] (grown on lactose) was found to be 33.7 fold. The “higher sialidase activity of B. longum bv. infantis compared to B. longum” value in assay [2] (grown on lactose) was 16.6 fold.
